Data taken from PubChem BioAssay AID2060335 (Molecular Pharmacology Branch, DTP, NCI, 2025).

Tested on: DU-145 multicell spheroids with HUVEC/MSC, viability
Experiment: Anticancer human tumor DU-145 cell line growth inhibition [IpAb];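 note: spheroids exposed to agents for seven days before measurement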;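 for viability, T/C: percent of DMSO vehicle control viability so 100% = untreated level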
Details: for IC50: curve of first compound; for viability, T/C: stronger effect = lower value
Method in brief: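 Multi-cell spheroids of 60% tumour cells, 25% HUVEC and 15% MSC in ultra-low-attachment U-bottom wells, treated with agents combined with ipatasertib or abemaciclib. Half-log ranges top out near clinical Cmax, or 10 microM when Cmax is unknown.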

[1] = second compound 0.1 µM, first compound 0.0316 µM
[2] = second compound 0.1 µM, first compound 0.1 µM
[3] = second compound 0.1 µM, first compound 0.316 µM
[4] = second compound 0.1 µM, first compound 1 µM
[5] = second compound 0.1 µM, first compound 3.16 µM
[6] = second compound 0.1 µM, first compound 10 µM
[7] = second compound 0.316 µM, first compound 0.0316 µM
[8] = second compound 0.316 µM, first compound 0.1 µM
[9] = second compound 0.316 µM, first compound 0.316 µM
[10] = second compound 0.316 µM, first compound 1 µM
[11] = second compound 0.316 µM, first compound 3.16 µM
[12] = second compound 0.316 µM, first compound 10 µM
[13] = second compound 1 µM, first compound 0.0316 µM
[14] = second compound 1 µM, first compound 0.1 µM
[15] = second compound 1 µM, first compound 0.316 µM
[16] = second compound 1 µM, first compound 1 µM
[17] = second compound 1 µM, first compound 3.16 µM
[18] = second compound 1 µM, first compound 10 µM
[19] = second compound 3.16 µM, first compound 0.0316 µM
[20] = second compound 3.16 µM, first compound 0.1 µM
[21] = second compound 3.16 µM, first compound 0.316 µM
[22] = second compound 3.16 µM, first compound 1 µM
[23] = second compound 3.16 µM, first compound 3.16 µM
[24] = second compound 3.16 µM, first compound 10 µM
[25] = second compound 10 µM, first compound 0.0316 µM
[26] = second compound 10 µM, first compound 0.1 µM
[27] = second compound 10 µM, first compound 0.316 µM
[28] = second compound 10 µM, first compound 1 µM
[29] = second compound 10 µM, first compound 3.16 µM
[30] = second compound 10 µM, first compound 10 µM

C=CC(=O)N1CCN(c2nc(=O)n(-c3c(C)ccnc3C(C)C)c3nc(-c4c(O)cccc4F)c(F)cc23)C(C)C1 (stereo not given) + CC(C)NCC(C(=O)N1CCN(c2ncnc3c2C(C)CC3O)CC1)c1ccc(Cl)cc1
IC50 (second compound 0.1 µM): 8760 nM
IC50 (second compound 0.316 µM): 4170 nM
IC50 (second compound 1 µM): < 31.6 nM
IC50 (second compound 3.16 µM): < 31.6 nM
IC50 (second compound 10 µM): < 31.6 nM
viability, T/C [1]: 81.3%
viability, T/C [2]: 87.7%
viability, T/C [3]: 86.1%
viability, T/C [4]: 92%
viability, T/C [5]: 82.9%
viability, T/C [6]: 45.5%
viability, T/C [7]: 53.9%
viability, T/C [8]: 55%
viability, T/C [9]: 59.1%
viability, T/C [10]: 59.2%
viability, T/C [11]: 52.9%
viability, T/C [12]: 37.8%
viability, T/C [13]: 34%
viability, T/C [14]: 35.5%
viability, T/C [15]: 37.6%
viability, T/C [16]: 37.4%
viability, T/C [17]: 34.5%
viability, T/C [18]: 28.3%
viability, T/C [19]: 22.4%
viability, T/C [20]: 21.9%
viability, T/C [21]: 27.5%
viability, T/C [22]: 24.4%
viability, T/C [23]: 24.5%
viability, T/C [24]: 20.7%
viability, T/C [25]: 19.5%
viability, T/C [26]: 19.3%
viability, T/C [27]: 18.5%
viability, T/C [28]: 21.6%
viability, T/C [29]: 19.9%
viability, T/C [30]: 17.1%

CC(C)(C)c1cnc(CSc2cnc(NC(=O)C3CCNCC3)s2)o1 + CC(C)NCC(C(=O)N1CCN(c2ncnc3c2C(C)CC3O)CC1)c1ccc(Cl)cc1
IC50 (second compound 0.1 µM): 107 nM
IC50 (second compound 0.316 µM): 81.5 nM
IC50 (second compound 1 µM): < 9.49 nM
IC50 (second compound 3.16 µM): < 9.49 nM
IC50 (second compound 10 µM): < 9.49 nM
viability, T/C (second compound 0.1 µM, first compound 0.00949 µM): 89.1%
viability, T/C (second compound 0.1 µM, first compound 0.03 µM): 92%
viability, T/C (second compound 0.1 µM, first compound 0.0949 µM): 54.7%
viability, T/C (second compound 0.1 µM, first compound 0.3 µM): 10%
viability, T/C (second compound 0.1 µM, first compound 0.949 µM): 6.37%
viability, T/C (second compound 0.1 µM, first compound 3 µM): 5.76%
viability, T/C (second compound 0.316 µM, first compound 0.00949 µM): 60.1%
viability, T/C (second compound 0.316 µM, first compound 0.03 µM): 60.2%
viability, T/C (second compound 0.316 µM, first compound 0.0949 µM): 48.5%
viability, T/C (second compound 0.316 µM, first compound 0.3 µM): 8.51%
viability, T/C (second compound 0.316 µM, first compound 0.949 µM): 6.34%
viability, T/C (second compound 0.316 µM, first compound 3 µM): 5.65%
viability, T/C (second compound 1 µM, first compound 0.00949 µM): 33.1%
viability, T/C (second compound 1 µM, first compound 0.03 µM): 38.5%
viability, T/C (second compound 1 µM, first compound 0.0949 µM): 31.7%
viability, T/C (second compound 1 µM, first compound 0.3 µM): 7.62%
viability, T/C (second compound 1 µM, first compound 0.949 µM): 5.87%
viability, T/C (second compound 1 µM, first compound 3 µM): 5.13%
viability, T/C (second compound 3.16 µM, first compound 0.00949 µM): 23.1%
viability, T/C (second compound 3.16 µM, first compound 0.03 µM): 25.1%
viability, T/C (second compound 3.16 µM, first compound 0.0949 µM): 24%
viability, T/C (second compound 3.16 µM, first compound 0.3 µM): 8.35%
viability, T/C (second compound 3.16 µM, first compound 0.949 µM): 5.85%
viability, T/C (second compound 3.16 µM, first compound 3 µM): 5.4%
viability, T/C (second compound 10 µM, first compound 0.00949 µM): 18.1%
viability, T/C (second compound 10 µM, first compound 0.03 µM): 21.6%
viability, T/C (second compound 10 µM, first compound 0.0949 µM): 15.7%
viability, T/C (second compound 10 µM, first compound 0.3 µM): 6.3%
viability, T/C (second compound 10 µM, first compound 0.949 µM): 5.1%
viability, T/C (second compound 10 µM, first compound 3 µM): 4.5%

Cn1ncc(Cl)c1-c1cc(C(=O)NC(CN)Cc2cccc(F)c2)sc1Cl (stereo not given) + CC(C)NCC(C(=O)N1CCN(c2ncnc3c2C(C)CC3O)CC1)c1ccc(Cl)cc1
IC50 (second compound 0.1 µM): 142 nM
IC50 (second compound 0.316 µM): < 31.6 nM
IC50 (second compound 1 µM): < 31.6 nM
IC50 (second compound 3.16 µM): < 31.6 nM
IC50 (second compound 10 µM): < 31.6 nM
viability, T/C [1]: 72.8%
viability, T/C [2]: 56.3%
viability, T/C [3]: 35.3%
viability, T/C [4]: 24.7%
viability, T/C [5]: 17%
viability, T/C [6]: 0.42%
viability, T/C [7]: 46.1%
viability, T/C [8]: 41.2%
viability, T/C [9]: 33.6%
viability, T/C [10]: 24%
viability, T/C [11]: 16.4%
viability, T/C [12]: 1.33%
viability, T/C [13]: 30%
viability, T/C [14]: 32.6%
viability, T/C [15]: 28%
viability, T/C [16]: 24.2%
viability, T/C [17]: 15.8%
viability, T/C [18]: 0.93%
viability, T/C [19]: 22%
viability, T/C [20]: 24.4%
viability, T/C [21]: 21.7%
viability, T/C [22]: 19.6%
viability, T/C [23]: 18.7%
viability, T/C [24]: 0.86%
viability, T/C [25]: 19.4%
viability, T/C [26]: 19.7%
viability, T/C [27]: 19.7%
viability, T/C [28]: 18.5%
viability, T/C [29]: 15.8%
viability, T/C [30]: 0.27%

Cn1nccc1Nc1nccc(-c2ccn(C(CO)c3ccc(Cl)c(F)c3)c(=O)c2)n1 (stereo not given) + CC(C)NCC(C(=O)N1CCN(c2ncnc3c2C(C)CC3O)CC1)c1ccc(Cl)cc1
IC50 (second compound 0.1 µM): > 10000 nM
IC50 (second compound 0.316 µM): < 31.6 nM
IC50 (second compound 1 µM): < 31.6 nM
IC50 (second compound 3.16 µM): < 31.6 nM
IC50 (second compound 10 µM): < 31.6 nM
viability, T/C [1]: 65.6%
viability, T/C [2]: 57.1%
viability, T/C [3]: 60%
viability, T/C [4]: 76.8%
viability, T/C [5]: 99%
viability, T/C [6]: 66.2%
viability, T/C [7]: 42.6%
viability, T/C [8]: 36.2%
viability, T/C [9]: 35.8%
viability, T/C [10]: 45.7%
viability, T/C [11]: 66.3%
viability, T/C [12]: 60.3%
viability, T/C [13]: 27.4%
viability, T/C [14]: 24.6%
viability, T/C [15]: 26.2%
viability, T/C [16]: 30.7%
viability, T/C [17]: 42.3%
viability, T/C [18]: 47.6%
viability, T/C [19]: 18.7%
viability, T/C [20]: 16.5%
viability, T/C [21]: 19.3%
viability, T/C [22]: 20.7%
viability, T/C [23]: 27.6%
viability, T/C [24]: 36.8%
viability, T/C [25]: 13.4%
viability, T/C [26]: 11.6%
viability, T/C [27]: 11.7%
viability, T/C [28]: 14.3%
viability, T/C [29]: 21.7%
viability, T/C [30]: 24.6%

Cn1ncnc1[C@H]1c2n[nH]c(=O)c3cc(F)cc(c23)N[C@@H]1c1ccc(F)cc1 + CC(C)NCC(C(=O)N1CCN(c2ncnc3c2C(C)CC3O)CC1)c1ccc(Cl)cc1
IC50 (second compound 0.1 µM): > 100 nM
IC50 (second compound 0.316 µM): 46.1 nM
IC50 (second compound 1 µM): < 0.316 nM
IC50 (second compound 3.16 µM): < 0.316 nM
IC50 (second compound 10 µM): < 0.316 nM
viability, T/C (second compound 0.1 µM, first compound 0.000316 µM): 85.8%
viability, T/C (second compound 0.1 µM, first compound 0.001 µM): 81.1%
viability, T/C (second compound 0.1 µM, first compound 0.00316 µM): 83.2%
viability, T/C (second compound 0.1 µM, first compound 0.01 µM): 82.1%
viability, T/C [1]: 77.9%
viability, T/C [2]: 73.4%
viability, T/C (second compound 0.316 µM, first compound 0.000316 µM): 56%
viability, T/C (second compound 0.316 µM, first compound 0.001 µM): 57.8%
viability, T/C (second compound 0.316 µM, first compound 0.00316 µM): 51.9%
viability, T/C (second compound 0.316 µM, first compound 0.01 µM): 53.8%
viability, T/C [7]: 51.8%
viability, T/C [8]: 47.1%
viability, T/C (second compound 1 µM, first compound 0.000316 µM): 34.4%
viability, T/C (second compound 1 µM, first compound 0.001 µM): 36.3%
viability, T/C (second compound 1 µM, first compound 0.00316 µM): 33.5%
viability, T/C (second compound 1 µM, first compound 0.01 µM): 33%
viability, T/C [13]: 34.3%
viability, T/C [14]: 33.6%
viability, T/C (second compound 3.16 µM, first compound 0.000316 µM): 24%
viability, T/C (second compound 3.16 µM, first compound 0.001 µM): 24.8%
viability, T/C (second compound 3.16 µM, first compound 0.00316 µM): 23.9%
viability, T/C (second compound 3.16 µM, first compound 0.01 µM): 21.9%
viability, T/C [19]: 24.5%
viability, T/C [20]: 23.3%
viability, T/C (second compound 10 µM, first compound 0.000316 µM): 17.7%
viability, T/C (second compound 10 µM, first compound 0.001 µM): 20.1%
viability, T/C (second compound 10 µM, first compound 0.00316 µM): 19.6%
viability, T/C (second compound 10 µM, first compound 0.01 µM): 19.1%
viability, T/C [25]: 18.1%
viability, T/C [26]: 19.5%
